{"source": "patent US7906477B2", "about": "(Genspera, Inc., priority 2002, dated 2011)", "key": {"[1]": {"assay": "plasma stability in 50% mouse plasma", "type": "in vitro ADME", "conditions": "500 μM; for parent peptide remaining after 3 hours (in words): HPLC", "method": "(§1) Mouse plasma was obtained from cardiac puncture of anesthetized mice prior to euthanization by CO2 overdose according to protocols approved by the Johns Hopkins Animal Care and Use Committee. Human plasma was obtained from discarded, pooled, and unlabeled clinical samples. Plasma was diluted to 50% in Tris buffer (50 mM Tris-HCl, 100 mM NaCl, pH 7.8). To this, test peptides/prodrugs were added to 250 or 500 μM final concentration. After the incubation period, one volume (200 μl) of acetonitrile was added to precipitate the protein fraction and the tube was centrifuged at 14,000 for 2 min. The supernatant was analyzed by C18-HPLC and the collected peaks were analyzed by MALDI-TOF as described above.\n(§2) Arginine-containing peptides are potential substrates for the wide variety of other trypsin-like proteases that are present in the blood and may have residual activity in the blood. The plasma stability of an hK2 peptide substrate may therefore be limited and this would have significant consequences related to the development of an hK2 activated prodrug. Therefore, two fluorescence quenched hK2 peptide substrates peptides were incubated in 50% mouse or human plasma (diluted in PBS buffer) to determine stability using a plate-reader. As observed with arginine containing peptides from the SPOT analysis above, none of the arginine-containing, fluorescence quenched hK2peptide substrates were stable in human or mouse plasma. Fluorescence-quenched Y′GKAFRR-Dap-GK′ (SEQ ID NO:42) and Y′GKAFRRLGK′ (SEQ ID NO:21) (500 μM each) were hydrolyzed when incubated in 50% mouse or human plasma (FIG. 7). Mouse plasma degraded the peptides faster than human plasma (FIG. 7). […] In human plasma, more peptide remained after 3 hours (˜25%). […] The proteolytic activity from plasma was never affected by repeated freeze-thaw cycles or by storage of the mouse plasma alone at room temperature for several days."}, "[2]": {"assay": "plasma stability in 50% human plasma", "type": "in vitro ADME", "conditions": "for remaining at 3 h, 500 μM: HPLC, read-out: parent peptide remaining after 3 hours; for degradation after overnight incubation (in words): human plasma", "method": "FIG. 5 depicts the stability of Ac-GKAFRR-L12ADT (SEQ ID NO:41) in human plasma after a 24 hour incubation, as determined by HPLC analysis. Ac-GKAFRR-L12ADT (SEQ ID NO:41) was incubated in 50% human plasma for 24 hours at room temperature. Peak 1 represents an unidentified plasma contaminant that was also present in control plasma. Peaks 2 and 3 both represent Ac-GKAFRR-L12ADT (SEQ ID NO:41) as confirmed by MALDI-TOF mass spectrometric analysis.\nas §1, §2\nTo determine the plasma stability for the hK2 prodrug, the prodrug was incubated in 50% fresh heparinized (1%) plasma for 24 hours at room temperature, precipitated the proteins by adding one volume of 1% TFA in acetonitrile and analyzed the supernatant by HPLC. Unexpectedly, BPLC analysis after 24 hrs incubation in plasma yielded only a single peak corresponding to the hK2 prodrug (FIG. 5). MALDI-TOF MS of the isolated single peak confirmed the stability of the molecule."}, "hK2": {"biological_target": "T1, hK2 (Homo sapiens, UniProt P20151)", "T1 construct": "made in house", "T1 sequence (P20151 25-261)": "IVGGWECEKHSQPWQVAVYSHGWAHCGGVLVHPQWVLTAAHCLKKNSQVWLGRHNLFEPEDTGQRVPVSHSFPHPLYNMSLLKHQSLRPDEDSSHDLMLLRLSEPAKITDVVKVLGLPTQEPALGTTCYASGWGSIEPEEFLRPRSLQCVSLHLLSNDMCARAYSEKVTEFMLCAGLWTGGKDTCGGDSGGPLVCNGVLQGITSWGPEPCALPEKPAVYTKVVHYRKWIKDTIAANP", "assay": "hK2 mediated hydrolysis of peptide substrates in solution (fluorescence)", "type": "biochemical", "conditions": "for digestion by hK2 of arginine-free peptides (in words): in solution, even after prolonged incubation; for hK2 mediated hydrolysis (in words, FIG. 2): substrates 250 μM, 8 μg/ml hK2 in PBS buffer", "method": "FIG. 2 depicts a graph of hK2 mediated hydrolysis of peptide substrates identified through the screening of a random peptide library [Y′GKARAF-Dap-FK′ (SEQ ID NO:36), Y′GKAKPR-Dap-FK′ (SEQ ID NO:37), Y′GKAFRR-Dap-FK′ (SEQ ID NO:38), Y′GKAMRQ-Dap-FK′ (SEQ ID NO:39) and Y′GSKGHFKL-Dap-F-K′ (SEQ ID NO:40)]. Substrates (250 μM) were incubated with 8 μg/ml hK2 in PBS buffer. Hydrolysis of peptide results in increased fluorescence, as measured using a 96 well fluorometer. […] To determine 100% digestion, trypsin was added (50 mg/ml) and samples were incubated to 37° C. for 30 min and the fluorescence was determined. The percentage digested is determined by dividing fluorescence units of sample by fluorescence units of control fully digested peptide.\nA mutant form of hK2 was utilized in which the amino acids −5 to −1 of the propeptide sequence of hK2 (i.e. Leu-Ile-Gln-Ser-Arg; SEQ ID NO:15) were mutated to Asp-Asp-Asp-Asp-Lys (SEQ ID NO:16) to generate a pro-hK2 protein that can be activated to functional hK2 by […] (Lovgren, J. et al. (1999) Eur. J. Biochem. 266:1050-1055). Compared with wild-type hK2, expression of the propeptide hK2 mutant increases the expression levels up to 15-40-fold (Lovgren, J. et al. (1999) Eur. J. Biochem. 266:1050-1055). The generation and characteristics of this mutant hK2 have been previously described (Lovgren, J. et al. (1999) Eur. J. Biochem. 266:1050-1055).\nFor validation of the Edman results, peptides were re-synthesized using a Rainin PS3 peptide synthesizer with HBTU/NMM activation. Peptides were synthesized on PEGA resin for on-bead analysis or on Fmoc-Lys(Mtt)-Wang resin for solution assays. The Fmoc-Lys(Mtt)-Wang resin was first deprotected with 2% TFA in DCM (3×2 min). The ε-amine of lysine was then acylated with Boc-Abz. Deprotection/cleavage was performed in TFA/TIS/water (95:2.5:2.5 v/v) for 2-3 hours. Peptides were ether precipitated, dried and purified by C18-HPLC using a linear gradient of acetonitrile (0.1% TFA), lyophilized and dissolved in DMSO. Peptide identities were confirmed by analysis on a Perseptive Voyager DE-STR MALDI-TOF using dihydroxy benzoic acid as a matrix. Fluorescence measurements were performed on a Fluoroskan II 96-well plate reader (ICN biomedicals, Costa Mesa, Calif.; excitation, 355 nm; emission, 460 nm). Kinetic parameters were calculated as described earlier (Denmeade, S. R. et al. (1997) Cancer Res. 57:4924-4930).\nThe combinatorial screen identified seven arginine-containing peptides. Four of these were re-synthesized (X1-X2-X3=RAF, KPR, FRR and MRQ respectively). Three other lead sequences were not re-synthesized (X1-X2-X3=IQR, FRK and VRQ respectively). All four arginine-containing sequences that were re-synthesized reproduced fluorescence when these peptides were digested on-bead with hK2. For a more quantitative analysis, the fluorescence-quenched peptides were cleaved off the resin and purified by HPLC. The rate of hydrolysis was quantified by measuring increase in fluorescence (Figure). […] In less than five minutes, more than 50% of the peptide was digested (500 μM peptide, 4 μg/ml hK2). For the other peptides, digestion of the same amount of peptide took 19-29 minutes. […] In subsequent studies, hydrolysis rates using the Y′GKAFRR-Dap-F-K′ (SEQ ID NO:38) peptide were analyzed by Lineweaver-Burke reciprocal plots."}}, "note": "Square brackets hold non-standard residues; d marks the D form. Ends that are not written are not given here. Peptide text beside a SMILES is read from it. Tyr(3-NO2) = N[C@@H](Cc1ccc(O)c([N+](=O)[O-])c1)C(=O)O; Abz = aminobenzoic acid; 2Abz = Nc1ccccc1C(=O)O; Dap = NC[C@H](N)C(=O)O", "data": [{"molecule": "C[C@H](NC(=O)[C@H](CCCCN)NC(=O)CNC(=O)[C@@H](N)Cc1ccc(O)c([N+](=O)[O-])c1)C(=O)N[C@@H](Cc1ccccc1)C(=O)N[C@@H](CCCNC(=N)N)C(=O)N[C@@H](CCCNC(=N)N)C(=O)N[C@@H](CN)C(=O)NCC(=O)N[C@@H](CCCCNC(=O)c1ccccc1N)C(=O)O", "note": "[Y′GKAFRR-Dap-GK′] (H-[Tyr(3-NO2)]GKAFRR[Dap]GK(2Abz)-OH; N-terminus assumed)", "values": [{"measurement": "parent peptide remaining after 3 hours (in words)", "setting": "[1]", "value": "almost no parent peptide remained"}, {"measurement": "remaining at 3 h, 500 μM", "setting": "[2]; 50% human plasma, 500 μM", "value": "~25", "unit": "%"}, {"measurement": "degradation after overnight incubation (in words)", "setting": "[2]", "value": "complete degradation"}]}, {"molecule": "CC(C)C[C@H](NC(=O)[C@H](CCCNC(=N)N)NC(=O)[C@H](CCCNC(=N)N)NC(=O)[C@H](Cc1ccccc1)NC(=O)[C@H](C)NC(=O)[C@H](CCCCN)NC(=O)CNC(=O)[C@@H](N)Cc1ccc(O)c([N+](=O)[O-])c1)C(=O)NCC(=O)N[C@@H](CCCCNC(=O)c1ccccc1N)C(=O)O", "note": "[Y′GKAFRRLGK′] (H-[Tyr(3-NO2)]GKAFRRLGK(2Abz)-OH)", "values": [{"measurement": "relative stability of the peptides (in words)", "setting": "[1]", "value": "less stable than the Dap containing peptide"}, {"measurement": "parent peptide remaining after 3 hours (in words)", "setting": "[1]", "value": "almost no parent peptide remained"}, {"measurement": "relative stability of the peptides (in words)", "setting": "[2]; 50% human plasma, 500 μM", "value": "less stable than the Dap containing peptide"}, {"measurement": "remaining at 3 h, 500 μM", "setting": "[2]; 50% human plasma, 500 μM", "value": "~25", "unit": "%"}, {"measurement": "degradation after overnight incubation (in words)", "setting": "[2]", "value": "complete degradation"}, {"measurement": "hK2 hydrolysis rate after substitution of Dap-F with Leu-Gly (in words)", "setting": "hK2; compare FIG. 2 with FIG. 8", "value": "only a modest decrease in hydrolysis rate"}]}, {"molecule": "Y′GSKGHFKL-Dap-K′: arginine-free fluorescence-quenched peptide, P1 lysine ([Tyr(3-NO2)]GSKGHFKL[Dap]K(Abz))", "values": [{"measurement": "digestion by hK2 of arginine-free peptides (in words)", "setting": "hK2", "value": "none of these three arginine free peptides were digested by hK2"}]}, {"molecule": "Y′GSKGPFKL-Dap-K′: arginine-free fluorescence-quenched peptide derivative ([Tyr(3-NO2)]GSKGPFKL[Dap]K(Abz))", "values": [{"measurement": "digestion by hK2 of arginine-free peptides (in words)", "setting": "hK2", "value": "none of these three arginine free peptides were digested by hK2"}]}, {"molecule": "C[C@H](NC(=O)[C@H](CCCCN)NC(=O)CNC(=O)[C@@H](N)Cc1ccc(O)c([N+](=O)[O-])c1)C(=O)N[C@@H](Cc1ccccc1)C(=O)N[C@@H](CCCNC(=N)N)C(=O)N[C@@H](CCCNC(=N)N)C(=O)N[C@@H](CN)C(=O)N[C@@H](Cc1ccccc1)C(=O)N[C@@H](CCCCNC(=O)c1ccccc1N)C(=O)O", "note": "[Y′GKAFRR-Dap-F-K′] (H-[Tyr(3-NO2)]GKAFRR[Dap]FK(2Abz)-OH; N-terminus assumed)", "values": [{"measurement": "maximum digestion", "setting": "hK2; 500 μM peptide, 4 μg/ml hK2", "value": "70-75%"}, {"measurement": "time in which more than 50% of the peptide was digested", "setting": "hK2; 500 μM peptide, 4 μg/ml hK2", "value": "less than five"}, {"measurement": "time to reach maximum digestion", "setting": "hK2; 500 μM peptide, 4 μg/ml hK2", "value": "less than 15 minutes"}, {"measurement": "hK2 mediated hydrolysis (in words, FIG. 2)", "setting": "hK2", "value": "by far exceeded all other substrates"}]}, {"molecule": "Y′GSKGHFKL-Dap-F-K′: fluorescence-quenched substrate without arginine ([Tyr(3-NO2)]GSKGHFKL[Dap]FK(Abz))", "values": [{"measurement": "hK2 mediated hydrolysis (in words, FIG. 2)", "setting": "hK2", "value": "did not show any hydrolysis"}]}, {"molecule": "Y′GSKGHFHL-Dap-K′: arginine-free fluorescence-quenched peptide from SPOT analysis sequence ([Tyr(3-NO2)]GSKGHFHL[Dap]K(Abz))", "values": [{"measurement": "digestion by hK2 of arginine-free peptides (in words)", "setting": "hK2", "value": "none of these three arginine free peptides were digested by hK2"}]}]}
